Measured values as given in patent US20200246317A1, “METHODS OF TREATING DIABETIC NEUROPATHY WITH A THIAZOLINE ANTI-HYPERALGESIC AGENT” (CERSCI THERAPEUTICS, INC., priority 2019, published 2020).
Where a name gives a salt, the structure may show the parent alone.

Experiments:
uninjured animals = assay: Normal sensation in uninjured animals; type: in vivo; settings: given to uninjured animals
P-gp (MDR1/ABCB1) = molecular target: T1, P-gp (MDR1/ABCB1) (Homo sapiens, UniProt P08183); assay: Inhibition of transporters, P-gp (Caco-2 cells, digoxin); type: in vitro ADME
T1 construct: Caco-2 cells; endogenous in cells; host or cells: Caco-2 cells
T1 sequence (P08183 whole entry): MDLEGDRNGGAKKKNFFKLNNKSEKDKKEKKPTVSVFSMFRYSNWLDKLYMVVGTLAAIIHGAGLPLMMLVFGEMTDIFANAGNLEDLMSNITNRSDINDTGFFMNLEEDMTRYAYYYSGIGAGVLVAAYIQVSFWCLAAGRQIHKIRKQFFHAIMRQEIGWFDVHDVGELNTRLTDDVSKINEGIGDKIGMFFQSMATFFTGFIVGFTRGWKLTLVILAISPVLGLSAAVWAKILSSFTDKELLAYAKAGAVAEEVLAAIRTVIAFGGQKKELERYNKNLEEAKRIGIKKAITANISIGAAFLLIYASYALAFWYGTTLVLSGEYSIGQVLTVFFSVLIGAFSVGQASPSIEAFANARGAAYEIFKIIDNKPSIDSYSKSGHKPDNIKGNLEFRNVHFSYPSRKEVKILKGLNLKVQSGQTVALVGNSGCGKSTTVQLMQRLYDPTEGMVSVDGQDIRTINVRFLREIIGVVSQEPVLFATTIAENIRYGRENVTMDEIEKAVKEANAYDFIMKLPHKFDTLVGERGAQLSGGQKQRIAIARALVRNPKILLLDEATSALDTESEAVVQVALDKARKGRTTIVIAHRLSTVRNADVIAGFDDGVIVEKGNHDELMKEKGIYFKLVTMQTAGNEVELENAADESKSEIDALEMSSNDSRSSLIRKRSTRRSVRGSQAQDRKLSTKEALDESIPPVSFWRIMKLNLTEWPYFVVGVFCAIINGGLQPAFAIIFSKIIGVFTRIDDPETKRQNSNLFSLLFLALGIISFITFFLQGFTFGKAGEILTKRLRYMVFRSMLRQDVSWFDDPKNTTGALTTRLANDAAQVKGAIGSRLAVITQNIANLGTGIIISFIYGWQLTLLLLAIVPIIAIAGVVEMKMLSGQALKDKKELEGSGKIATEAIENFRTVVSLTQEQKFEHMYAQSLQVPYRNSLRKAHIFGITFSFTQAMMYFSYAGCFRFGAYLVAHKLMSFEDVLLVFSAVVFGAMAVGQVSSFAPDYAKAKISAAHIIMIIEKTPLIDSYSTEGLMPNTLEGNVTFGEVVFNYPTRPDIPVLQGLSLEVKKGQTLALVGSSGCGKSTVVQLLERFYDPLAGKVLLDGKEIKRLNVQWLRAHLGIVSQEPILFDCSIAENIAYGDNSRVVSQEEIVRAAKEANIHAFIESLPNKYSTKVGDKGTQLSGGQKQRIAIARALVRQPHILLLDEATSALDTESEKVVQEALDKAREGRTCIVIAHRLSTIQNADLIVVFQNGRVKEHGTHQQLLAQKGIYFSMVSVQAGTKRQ

[1] = Stability of dose formulations for GLP toxicology studies (0.5% HPMC); type: physicochemical; settings: 1.0 to 200 mg/mL in 0.5% HPMC
Experimental: Formulation analysis and bioanalytical methods were validated for all GLP studies. Formulation of Compound 1 in water was validated over a range of 1 to 200 mg/mL using HPLC and in 0.5% hydroxypropyl methylcellulose (HPMC) over the same range.
Dose formulation analysis for all good laboratory practice (GLP) general toxicology studies was performed using a validated high-performance liquid chromatography (HPLC)/ultraviolet (UV) analytical method (2750-001-001 Dose Formulation Method 1). The vehicle used in the in vivo toxicology studies was 0.5% HPMC). The analytical method utilized HPLC with monitoring at 227 nm with an isocratic mobile phase of methanol with the column temperature set to 25° C. Linearity over a range of 1.0 to 200 mg/mL was observed. Dose formulations over this range were stable at room temperature for up to 13 days and were stable when stored frozen at −20° C. for up to 85 days.

BCRP (ABCG2) = molecular target: T2, BCRP (ABCG2) (Homo sapiens, UniProt Q9UNQ0); assay: Inhibition of transporters, BCRP (MDCKII cells, prazosin); type: in vitro ADME
T2 construct: expressed in transfected cells; host or cells: MDCKII-BCRP cells (with MDCKII control cells)
T2 sequence (Q9UNQ0 1-655): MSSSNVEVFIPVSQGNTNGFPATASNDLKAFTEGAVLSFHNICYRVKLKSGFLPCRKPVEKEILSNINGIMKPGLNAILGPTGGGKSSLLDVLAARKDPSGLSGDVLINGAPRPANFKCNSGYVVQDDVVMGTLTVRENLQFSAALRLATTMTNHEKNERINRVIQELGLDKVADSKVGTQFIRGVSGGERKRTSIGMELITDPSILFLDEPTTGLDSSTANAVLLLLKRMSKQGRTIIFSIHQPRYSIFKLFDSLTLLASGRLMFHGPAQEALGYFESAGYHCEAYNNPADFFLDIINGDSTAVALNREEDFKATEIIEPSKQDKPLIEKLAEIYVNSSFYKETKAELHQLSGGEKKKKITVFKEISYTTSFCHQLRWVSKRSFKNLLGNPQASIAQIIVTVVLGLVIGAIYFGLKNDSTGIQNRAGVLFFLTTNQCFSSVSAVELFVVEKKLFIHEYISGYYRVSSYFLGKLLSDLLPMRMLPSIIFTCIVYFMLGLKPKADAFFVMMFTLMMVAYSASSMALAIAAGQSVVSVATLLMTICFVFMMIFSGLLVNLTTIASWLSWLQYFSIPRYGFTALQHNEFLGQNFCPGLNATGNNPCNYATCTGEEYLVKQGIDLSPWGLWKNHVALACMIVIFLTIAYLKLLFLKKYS

[2] = Models of protein nitration; type: biochemical; settings: physiological conditions (neutral pH)
OATP1B1 = molecular target: T3, OATP1B1 (Homo sapiens, UniProt Q9Y6L6); assay: Inhibition of transporters, OATP1B1 (HEK293 cells); type: in vitro ADME
T3 construct: expressed in transfected cells; host or cells: HEK293 cells
T3 sequence (Q9Y6L6 1-691): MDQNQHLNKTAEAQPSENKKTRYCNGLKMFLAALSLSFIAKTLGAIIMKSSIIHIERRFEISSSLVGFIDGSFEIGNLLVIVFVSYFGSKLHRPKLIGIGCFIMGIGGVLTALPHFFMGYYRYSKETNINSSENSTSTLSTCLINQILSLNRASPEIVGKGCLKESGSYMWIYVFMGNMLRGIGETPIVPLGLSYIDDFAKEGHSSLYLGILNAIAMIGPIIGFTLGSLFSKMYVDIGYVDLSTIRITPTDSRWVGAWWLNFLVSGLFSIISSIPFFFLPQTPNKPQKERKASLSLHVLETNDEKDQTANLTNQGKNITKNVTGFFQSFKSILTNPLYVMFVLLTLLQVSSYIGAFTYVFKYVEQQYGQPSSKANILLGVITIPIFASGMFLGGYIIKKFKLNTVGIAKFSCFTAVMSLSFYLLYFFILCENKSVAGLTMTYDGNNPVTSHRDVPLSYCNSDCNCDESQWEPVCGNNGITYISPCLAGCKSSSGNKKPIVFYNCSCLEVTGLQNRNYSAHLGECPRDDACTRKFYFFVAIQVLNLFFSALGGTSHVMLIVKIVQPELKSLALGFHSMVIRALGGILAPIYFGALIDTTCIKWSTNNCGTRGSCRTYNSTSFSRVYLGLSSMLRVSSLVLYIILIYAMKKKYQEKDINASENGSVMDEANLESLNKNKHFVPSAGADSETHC

OATP1B3 = molecular target: T4, OATP1B3 (Homo sapiens, UniProt Q9NPD5); assay: Inhibition of transporters, OATP1B3 (HEK293 cells); type: in vitro ADME
T4 construct: expressed in transfected cells; host or cells: HEK293 cells
T4 sequence (Q9NPD5 1-702): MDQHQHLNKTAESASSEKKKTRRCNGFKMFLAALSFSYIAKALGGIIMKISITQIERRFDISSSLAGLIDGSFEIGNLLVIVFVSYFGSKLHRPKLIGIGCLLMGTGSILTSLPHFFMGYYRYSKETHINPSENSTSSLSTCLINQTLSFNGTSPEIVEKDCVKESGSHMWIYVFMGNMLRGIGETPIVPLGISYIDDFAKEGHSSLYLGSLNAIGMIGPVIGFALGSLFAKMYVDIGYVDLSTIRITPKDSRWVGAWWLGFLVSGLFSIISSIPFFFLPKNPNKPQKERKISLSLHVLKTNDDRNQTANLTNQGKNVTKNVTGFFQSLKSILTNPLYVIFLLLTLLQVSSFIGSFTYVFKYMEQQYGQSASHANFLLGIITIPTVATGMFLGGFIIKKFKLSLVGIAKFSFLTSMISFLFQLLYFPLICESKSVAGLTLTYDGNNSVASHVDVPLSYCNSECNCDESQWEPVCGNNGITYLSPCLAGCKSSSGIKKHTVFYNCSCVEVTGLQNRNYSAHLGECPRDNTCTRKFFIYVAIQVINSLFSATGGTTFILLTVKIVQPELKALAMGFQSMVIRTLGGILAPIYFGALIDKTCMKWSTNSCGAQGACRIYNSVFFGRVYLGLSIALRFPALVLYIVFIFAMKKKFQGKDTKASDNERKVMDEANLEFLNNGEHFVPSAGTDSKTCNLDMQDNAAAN

CC1(C)SC(Nc2ccccc2O)=N[C@@H]1C(=O)O [Compound 1, (R)-2-(2-hydroxyphenylamino)-5,5-dimethyl-4,5-dihydrothiazole-4-carboxylic acid mono-hydrochloride]
effect on normal sensation (uninjured animals): does not alter normal sensation
inhibition of P-gp (in words) (P-gp (MDR1/ABCB1)): does not inhibit
stability of dose formulations, time stable ([1]; room temperature): up to 13 days
stability of dose formulations, time stable ([1]; stored frozen at −20° C.): up to 85 days
inhibition of BCRP (in words) (BCRP (ABCG2)): modestly inhibits
removal of peroxynitrite [2]: catalytically remove peroxynitrite
inhibition of OATP1B1 (in words) (OATP1B1): does not inhibit
inhibition of OATP1B3 (in words) (OATP1B3): does not inhibit
